Results: PubChem BioAssay (NCI)
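Dose response: 5 concentrations. Exposure: 48 h. Format: 96-well plates. Endpoint: linear interpolation; highest concentration if not reached. TGI denotes the concentration required for complete inhibition of growth.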

Columns and labels:
Assay in all cases: NCI tumour cell line growth inhibition, 48 h
[1] = system: A498 renal
[2] = system: A549 NSCLC
[3] = system: CCRF-CEM leukemia
[4] = system: COLO 205 colon
[5] = system: DLD-1 colon
[6] = system: DMS 114 small cell lung
[7] = system: DMS 273 small cell lung
[8] = system: EKVX NSCLC
[9] = system: HCC-2998 colon
[10] = system: HCT-116 colon
[11] = system: HCT-15 colon
[12] = system: HL-60(TB) leukemia
[13] = system: HOP-18 NSCLC
[14] = system: HOP-62 NSCLC
[15] = system: HOP-92 NSCLC
[16] = system: HT29 colon
[17] = system: IGROV1 ovarian
[18] = system: K-562 leukemia
[19] = system: KM12 colon
[20] = system: LOX IMVI melanoma
[21] = system: M19-MEL melanoma
[22] = system: MALME-3M melanoma
[23] = system: MCF7 breast
[24] = system: MOLT-4 leukemia
[25] = system: NCI-H226 lung
[26] = system: NCI-H23 lung
[27] = system: NCI-H460 lung
[28] = system: NCI-H522 lung
[29] = system: NCI/ADR-RES ovarian
[30] = system: OVCAR-3 ovarian
[31] = system: OVCAR-4 ovarian
[32] = system: OVCAR-5 ovarian
[33] = system: OVCAR-8 ovarian
[34] = system: P388 leukemia
[35] = system: P388/ADR leukemia
[36] = system: RXF 393 renal
[37] = system: SF-268 CNS
[38] = system: SF-295 CNS
[39] = system: SF-539 CNS
[40] = system: SK-MEL-2 melanoma
[41] = system: SK-MEL-28 melanoma
[42] = system: SK-MEL-5 melanoma
[43] = system: SK-OV-3 ovarian
[44] = system: SN12C renal
[45] = system: SN12K1 renal
[46] = system: SNB-75 CNS
[47] = system: SNB-78 CNS
[48] = system: SW-620 colon
[49] = system: U251 CNS
[50] = system: UACC-257 melanoma
[51] = system: UACC-62 melanoma
[52] = system: UO-31 renal
[53] = system: XF 498 CNS
[54] = system: KM20L2 colon
[55] = system: RPMI-8226 leukemia
[56] = system: SNB-19 CNS
[57] = system: 786-0 renal
[58] = system: ACHN renal
[59] = system: CAKI-1 renal
[60] = system: LXFL 529 NSCLC
[61] = system: M14 melanoma
[62] = system: RXF-631 renal
[63] = system: SR leukemia
[64] = system: TK-10 renal

Measured: TGI

Nc1ccc2cc(S(=O)(=O)O)cc(O)c2c1N=Nc1ccc(NC(=O)Nc2ccc(N=Nc3c(N)ccc4cc(S(=O)(=O)O)cc(O)c34)c(S(=O)(=O)O)c2)cc1S(=O)(=O)O
not listed: [54] | [55] | [56] | [57] | [58] | [59] | [60] | [61] | [62] | [63] | [64]
> 100 µM: all other assays above

O=C1ON(Cc2ccccc2)C(c2ccccc2)N1c1ccccc1 (stereo not drawn)
not listed: [57] | [58] | [59] | [60] | [61] | [62] | [63] | [64]
> 100 µM: all other assays above

COc1nc(/C=N/NC(N)=S)nc(OC)n1
not listed: [3] | [11] | [14] | [20] | [23] | [29] | [34] | [35] | [42] | [45]
> 100 µM: all other assays above
